This passage reports Activity results from ChEMBL document CHEMBL5532761, “Rosavin improves insulin resistance and alleviates hepatic and kidney damage via modulating the cGAS-STING pathway and autophagy signaling in HFD/STZ-induced T2DM animals” (2024).

Assay [1] deals with Rattus norvegicus. Nature of the assay: Antidiabetic activity in high fat diet-STZ induced diabetic Wistar rat model assessed as insulin level in serum at 10 mg/kg, ip pretreated with high fat diet for 4 weeks followed by 8 hrs fasting after STZ administration and measured 4 weeks after compound treatment by ELISA (reference value: 16.53 +/- 1.14 microU/ml). Type of assay: functional.

For assay [2], the system named is Rattus norvegicus. Nature of the assay: Antidiabetic activity in high fat diet-STZ induced diabetic Wistar rat model assessed as HDL-cholesterol level at 10 mg/kg, ip pretreated with high fat diet for 4 weeks followed by 8 hrs fasting after STZ administration and measured 4 weeks after compound treatment (reference value: 0.688 +/- 0.288 mmol/L). Type of assay: functional.

In assay [3] the test system is Rattus norvegicus. Put plainly: Antidiabetic activity in high fat diet-STZ induced diabetic Wistar rat model assessed as glucose level in serum at 20 mg/kg, ip pretreated with high fat diet for 4 weeks followed by 8 hrs fasting after STZ administration and measured 4 weeks after compound treatment (reference value: 527.7 +/- 49.1 mg%). Type of assay: functional.
The subject of assay [4] is Rattus norvegicus. Put plainly: Antidiabetic activity in high fat diet-STZ induced diabetic Wistar rat model assessed as insulin level in serum at 20 mg/kg, ip pretreated with high fat diet for 4 weeks followed by 8 hrs fasting after STZ administration and measured 4 weeks after compound treatment by ELISA (reference value: 16.53 +/- 1.14 microU/ml). Type of assay: functional.

In assay [5] the test system is Rattus norvegicus. Nature of the assay: Antidiabetic activity in high fat diet-STZ induced diabetic Wistar rat model assessed as HOMA-IR level at 20 mg/kg, ip pretreated with high fat diet for 4 weeks followed by 8 hrs fasting after STZ administration and measured 4 weeks after compound treatment (reference value: 21.51 +/- 2.17). The class given is functional.
The subject of assay [6] is Rattus norvegicus. Put plainly: Antidiabetic activity in high fat diet-STZ induced diabetic Wistar rat model assessed as HDL-cholesterol level at 20 mg/kg, ip pretreated with high fat diet for 4 weeks followed by 8 hrs fasting after STZ administration and measured 4 weeks after compound treatment (reference value: 0.688 +/- 0.288 mmol/L). Type of assay: functional.
Assay [7] relates to Rattus norvegicus. Nature of the assay: Antidiabetic activity in high fat diet-STZ induced diabetic Wistar rat model assessed as LDL-cholesterol level at 20 mg/kg, ip pretreated with high fat diet for 4 weeks followed by 8 hrs fasting after STZ administration and measured 4 weeks after compound treatment (reference value: 6.54 +/- 0.918 mmol/L). The class given is functional.

The test system of assay [8] is Rattus norvegicus. Put plainly: Antidiabetic activity in high fat diet-STZ induced diabetic Wistar rat model assessed as blood urea nitrogen level at 20 mg/kg, ip pretreated with high fat diet for 4 weeks followed by 8 hrs fasting after STZ administration and measured 4 weeks after compound treatment (reference value: 466.4 +/- 51.16 mg%). The class given is functional.

In assay [9] the test system is Rattus norvegicus. Nature of the assay: Antidiabetic activity in high fat diet-STZ induced diabetic Wistar rat model assessed as AST level at 20 mg/kg, ip pretreated with high fat diet for 4 weeks followed by 8 hrs fasting after STZ administration and measured 4 weeks after compound treatment (reference value: 136.3 +/- 22.8 IU/L). Type of assay: functional.
For assay [10], the system named is Rattus norvegicus. Nature of the assay: Antidiabetic activity in high fat diet-STZ induced diabetic Wistar rat model assessed as HOMA-IR level at 30 mg/kg, ip pretreated with high fat diet for 4 weeks followed by 8 hrs fasting after STZ administration and measured 4 weeks after compound treatment (reference value: 21.51 +/- 2.17). The class given is functional.

Assay [11] has as its system Rattus norvegicus. Nature of the assay: Antidiabetic activity in high fat diet-STZ induced diabetic Wistar rat model assessed as HDL-cholesterol level at 30 mg/kg, ip pretreated with high fat diet for 4 weeks followed by 8 hrs fasting after STZ administration and measured 4 weeks after compound treatment (reference value: 0.688 +/- 0.288 mmol/L). Type of assay: functional.

Assay [12] relates to Rattus norvegicus. Put plainly: Antidiabetic activity in high fat diet-STZ induced diabetic Wistar rat model assessed as blood urea nitrogen level at 30 mg/kg, ip pretreated with high fat diet for 4 weeks followed by 8 hrs fasting after STZ administration and measured 4 weeks after compound treatment (reference value: 466.4 +/- 51.16 mg%). Type of assay: functional.
The subject of assay [13] is Rattus norvegicus. Put plainly: Antidiabetic activity in high fat diet-STZ induced diabetic Wistar rat model assessed as AST level at 30 mg/kg, ip pretreated with high fat diet for 4 weeks followed by 8 hrs fasting after STZ administration and measured 4 weeks after compound treatment (reference value: 136.3 +/- 22.8 IU/L). The class given is functional.
The test system of assay [14] is Rattus norvegicus. Put plainly: Antidiabetic activity in high fat diet-STZ induced diabetic Wistar rat model assessed as ALT level at 30 mg/kg, ip pretreated with high fat diet for 4 weeks followed by 8 hrs fasting after STZ administration and measured 4 weeks after compound treatment (reference value: 152.1 +/- 23.64 IU/L). Type of assay: functional.
Assay [15] deals with Rattus norvegicus. Put plainly: Antidiabetic activity in high fat diet-STZ induced diabetic Wistar rat model assessed as mean area percentage of LC3B in kidney at 10 mg/kg, ip pretreated with high fat diet for 4 weeks followed by 8 hrs fasting after STZ administration and measured after 4 weeks of compound treatment by immunohistochemistry based microscopic analysis (reference value: 2.47 +/- 0.356 %). The class given is functional.

Assay [16] concerns Rattus norvegicus. Nature of the assay: Antidiabetic activity in high fat diet-STZ induced diabetic Wistar rat model assessed as mean area percentage of LC3B in kidney at 30 mg/kg, ip pretreated with high fat diet for 4 weeks followed by 8 hrs fasting after STZ administration and measured after 4 weeks of compound treatment by immunohistochemistry based microscopic analysis (reference value: 2.47 +/- 0.356 %). The class given is functional.

In assay [17] the test system is Rattus norvegicus. Put plainly: Antidiabetic activity in high fat diet-STZ induced diabetic Wistar rat model assessed as mean area percentage of TNFalpha in kidney at 10 mg/kg, ip pretreated with high fat diet for 4 weeks followed by 8 hrs fasting after STZ administration and measured after 4 weeks of compound treatment by immunohistochemistry based microscopic analysis (reference value: 24 +/- 1.5 %). The class given is functional.

Assay [18] deals with Rattus norvegicus. Put plainly: Antidiabetic activity in ip dosed high fat diet-STZ induced diabetic Wistar rat model assessed as reduction of ZBP1 mRNA expression in adipose tissue pretreated with high fat diet for 4 weeks followed by 8 hrs fasting after STZ administration and measured 4 weeks after compound treatment by RT-qPCR analysis. The class given is functional, organism-based. The conditions noted are these: dose 10-30 mg/kg.

Assay [19] has as its system Rattus norvegicus. Put plainly: Antidiabetic activity in ip dosed high fat diet-STZ induced diabetic Wistar rat model assessed as reduction of miR-1976 expression in liver pretreated with high fat diet for 4 weeks followed by 8 hrs fasting after STZ administration and measured 4 weeks after compound treatment by RT-qPCR analysis. The class given is functional, organism-based. The conditions noted are these: dose 10-30 mg/kg.

For assay [20], the system named is Rattus norvegicus. Nature of the assay: Antidiabetic activity in ip dosed high fat diet-STZ induced diabetic Wistar rat model assessed as reduction of miR-1976 expression in adipose tissue pretreated with high fat diet for 4 weeks followed by 8 hrs fasting after STZ administration and measured 4 weeks after compound treatment by RT-qPCR analysis. Type of assay: functional, organism-based. The conditions noted are these: dose 10-30 mg/kg.

Assay [21] deals with Rattus norvegicus. Nature of the assay: Antidiabetic activity in high fat diet-STZ induced diabetic Wistar rat model assessed as reduction in inflammatory infiltrates in kidney at 20 mg/kg, ip pretreated with high fat diet for 4 weeks followed by 8 hrs fasting after STZ administration and measured 4 weeks after compound treatment by hematoxylin and eosin staining based microscopic analysis. Type of assay: functional, organism-based.

Assay [22] relates to Rattus norvegicus. Nature of the assay: Antidiabetic activity in high fat diet-STZ induced diabetic Wistar rat model assessed as protection against replacement of hepatocellular necrosis with inflammatory cells at 10 mg/kg, ip pretreated with high fat diet for 4 weeks followed by 8 hrs fasting after STZ administration and measured 4 weeks after compound treatment by hematoxylin and eosin staining based microscopic analysis. Type of assay: functional, organism-based.

Assay [23] concerns Rattus norvegicus. Nature of the assay: Antidiabetic activity in high fat diet-STZ induced diabetic Wistar rat model assessed as organized histological features of hepatic parenchyma at 30 mg/kg, ip pretreated with high fat diet for 4 weeks followed by 8 hrs fasting after STZ administration and measured 4 weeks after compound treatment by hematoxylin and eosin staining based microscopic analysis. The class given is functional, organism-based.

The source made the active and inactive calls. The calls are words filed in the database; no cut-off is given here.

Turning to `O[C@@H]1[C@@H](O)[C@H](OC/C=C/c2ccccc2)O[C@H](CO[C@@H]2OC[C@H](O)[C@H](O)[C@H]2O)[C@H]1O`, the Activity in [1] was 13.88 uU/ml; in assay [2], 0.916 mmol/L; in assay [3] it was 174.8 mg%; in assay [4], 6.4 uU/ml; in assay [5], 2.76; in [6] it was 1.06 mmol/L. In addition, the Activity in assay [7] is 2.13 mmol/L; in assay [8], 213.3 mg%; in [9] it was 54.5 IU/L; in assay [10], 1.73; in assay [11], 1.39 mmol/L; in [12], 172.3 mg%. For the same compound, the Activity in assay [13] is 30.25 IU/L; in assay [14] it was 18.13 IU/L; in assay [15], 8.6%; in [16] it was 12.7%; in assay [17], 16.98%; in [18] it was “Dose-Dependent Effect”. The Activity entry in assay [19] and in assay [20] was “Dose-Dependent Effect” throughout. Also, the result in assay [21] and in assay [23] was Active. Moreover, the result in assay [22] was inactive.
